The results in this text go back to ChEMBL document CHEMBL2311407, “Design and synthesis of diazatricyclodecane agonists of the G-protein-coupled receptor 119” (J Med Chem, 2013).

Data set [1] can be described thus: Aqueous solubility of the compound in PBS at pH 1.2. It counts as physicochemical.
Data set [2] in a line: Aqueous solubility of the compound in PBS at pH 7.4. Format: physicochemical.
Data set [3] can be described thus: Apparent intrinsic clearance in human liver microsomes. The following applies: read-out: CLH(app). Format: ADME, Microsome.

One may read the solubility as the dissolved amount per volume that the medium holds.

The structures appear in SMILES notation. Values after ≈ are worked out from the molar mass of the structure shown.

With `Cc1ncccc1Oc1ncnc(N2C3CC4CC2CC(C3)N4C(=O)OC2(C)CC2)c1C`, the solubility was 6800 µg/mL (≈ 15.6 mM) in data set [1] and 0.5 µg/mL (≈ 0.00115 mM) in data set [2].

Turning to `Cc1ncccc1Oc1ncnc(N2C3CC4CC2CC(C3)N4C(=O)OCC(C)C)c1C`, the CLint scaled in data set [3] was over 30 mL/min/kg.
